The conditions of series [1]: aqueous solution of hydroxyl ethyl cellulose, Pullulan, polyvinyl pyrollidone and propylene glycol alginate, cast to thin film. The source says: Alternatively, films of the present invention can be made by dissolving NBD in an aqueous solution of hydroxyl ethyl cellulose, Pullulan, polyvinyl pyrollidone (“PVP”), and propylene glycol alginate (“POGA”). This solution can then be cast to form thin films of the present invention. […] Films made according to the process, in addition to comprising embodiments of the present invention, can be used as the base water-soluble film to which the fluid comprising nicotine is applied. Further, or in the alternative, the aqueous solution thus described can comprise the fluid comprising nicotine for application to the base water-soluble film.

For series [2] the following is noted: in water or alcohol; cited from earlier work.

Data on two molecules can be found in patent publication US20080260807A1, “Water-Soluble Films Comprising Nicotine” (Bio Progress Technology Limited, priority 2005, published 2008).

Molecules are shown by their SMILES.

For `CN1CCCC1c1cccnc1.O.O.O=C(O)C(O)C(O)C(=O)O` (centres unmarked) [Nicotine Bitartrate Dihydrate, nicotine bitartrate dihydrate], in series [1], the “Crystallisation during formation of the film” value was “does not crystallize”.
Consider `CN1CCCC1c1cccnc1` (centres unmarked) [Nicotine], for which the Solubility entry in series [2] is reported as “Soluble in water”.
